Experiment: Particle size measurement by Malvern Particle Size Analyzer (Mastersizer-Hydro 2000 S M)
Format: physicochemical
Conditions: 1 g in 100 ml dispersant medium; prothioconazole prepared according to Example 3
Protocol: Particle Size Measurement by Malvern Particle Size Analyzer
Sample preparation and method of analysis: 1 g of Prothioconazole was taken in 100 ml dispersant medium. The content was mixed well and analyzed in Malvern Mastersizer-Hydro 2000 S M.

OC(Cc1ccccc1Cl)(Cn1ncnc1S)C1(Cl)CC1 (centres unmarked) [Prothioconazole, 2-(1-chloro-cyclopropyl)-1-(2-chlorophenyl)-3-(5-mercapto-1,2,4-triazol-1-yl)-propan-2-ol]
d (0.5) particle size (volume distribution): 202.967 um | d (0.9) particle size (volume distribution): 367.723 um

Reference: patent US11634394B2, “Process for preparation of fungicidally active triazole compounds” (UPL LTD, priority 2018, dated 2023)
